Data reported in ChEMBL document CHEMBL2040848, “Synthesis and bioactivity evaluation of rhodanine derivatives as potential anti-bacterial agents” (2012).
≈ marks a conversion by molar mass, not a printed value.

Key:
Format in all cases: functional
[1] = test system: Staphylococcus aureus; assay: Antibacterial activity against Staphylococcus aureus KCTC 4220 after 24 hrs by two-fold serial dilution method; settings: KCTC 4220, 24 h
[2] = test system: Staphylococcus aureus; assay: Antibacterial activity against quinolone-resistant Staphylococcus aureus CCARM 3505 after 24 hrs by two-fold serial dilution method; settings: CCARM 3505, 24 h
[3] = test system: Escherichia coli; assay: Antibacterial activity against Escherichia coli 1356 after 24 hrs by two-fold serial dilution method; settings: Escherichia coli, 1356, 24 h
[4] = test system: Staphylococcus aureus; assay: Ratio of MIC for oxacillin to compound for methicillin-resistant Staphylococcus aureus CCARM 3506 after 24 hrs by two-fold serial dilution method
[5] = test system: Staphylococcus aureus; assay: Antibacterial activity against quinolone-resistant Staphylococcus aureus CCARM 3519 after 24 hrs by two-fold serial dilution method; settings: CCARM 3519, 24 h
[6] = test system: Staphylococcus aureus; assay: Antibacterial activity against methicillin-resistant Staphylococcus aureus CCARM 3167 after 24 hrs by two-fold serial dilution method; settings: CCARM 3167, 24 h
[7] = test system: Staphylococcus aureus; assay: Ratio of MIC for oxacillin to compound for methicillin-resistant Staphylococcus aureus CCARM 3167 after 24 hrs by two-fold serial dilution method
[8] = test system: Staphylococcus aureus; assay: Ratio of MIC for norfloxacin to compound for quinolone-resistant Staphylococcus aureus CCARM 3505 after 24 hrs by two-fold serial dilution method
[9] = test system: Staphylococcus aureus; assay: Antibacterial activity against methicillin-resistant Staphylococcus aureus CCARM 3506 after 24 hrs by two-fold serial dilution method; settings: CCARM 3506, 24 h
[10] = test system: Staphylococcus aureus; assay: Antibacterial activity against Staphylococcus aureus KCTC 209 after 24 hrs by two-fold serial dilution method; settings: KCTC 209, 24 h
[11] = test system: Staphylococcus aureus; assay: Antibacterial activity against Staphylococcus aureus KCTC 503 after 24 hrs by two-fold serial dilution method; settings: KCTC 503, 24 h
[12] = test system: Staphylococcus aureus; assay: Ratio of MIC for norfloxacin to compound for quinolone-resistant Staphylococcus aureus CCARM 3519 after 24 hrs by two-fold serial dilution method
[13] = test system: Staphylococcus aureus; assay: Ratio of MIC for norfloxacin to compound for methicillin-resistant Staphylococcus aureus CCARM 3167 after 24 hrs by two-fold serial dilution method
[14] = test system: Staphylococcus aureus; assay: Ratio of MIC for norfloxacin to compound for methicillin-resistant Staphylococcus aureus CCARM 3506 after 24 hrs by two-fold serial dilution method
[15] = test system: Staphylococcus aureus; assay: Ratio of MIC for norfloxacin to compound for Staphylococcus aureus KCTC 503 after 24 hrs by two-fold serial dilution method
[16] = test system: Staphylococcus aureus; assay: Ratio of MIC for norfloxacin to compound for Staphylococcus aureus KCTC 209 after 24 hrs by two-fold serial dilution method
[17] = test system: Staphylococcus aureus; assay: Ratio of MIC for norfloxacin to compound for Staphylococcus aureus KCTC 4220 after 24 hrs by two-fold serial dilution method

| SMILES | MIC [1] [µg/mL] | MIC [2] [µg/mL] | MIC [3] [µg/mL] | Ratio [4] | MIC [5] [µg/mL] | MIC [6] [µg/mL] | Ratio [7] | Ratio [8] | MIC [9] [µg/mL] | MIC [10] [µg/mL] | MIC [11] [µg/mL] | Ratio [12] | Ratio [13] | Ratio [14] | Ratio [15] | Ratio [16] | Ratio [17] |
| --- | --- | --- | --- | --- | --- | --- | --- | --- | --- | --- | --- | --- | --- | --- | --- | --- | --- |
| O=C(COc1ccc(/C=C2\SC(=S)N([C@@H](Cc3c[nH]c4ccccc34)C(=O)O)C2=O)cc1)c1cccc(Cl)c1 | 8 (≈ 13.9 µM) | 1 (≈ 1.73 µM) | > 64 | 64 | 1 (≈ 1.73 µM) | 1 (≈ 1.73 µM) | 64 | 64 | 1 (≈ 1.73 µM) | 4 (≈ 6.93 µM) | 4 (≈ 6.93 µM) | 64 | 4 | 4 | – | – | – |
| O=C(COc1ccc(/C=C2\SC(=S)N([C@@H](Cc3ccccc3)C(=O)O)C2=O)cc1)c1ccccc1Br | 8 (≈ 13.7 µM) | 4 (≈ 6.87 µM) | > 64 | – | 8 (≈ 13.7 µM) | 4 (≈ 6.87 µM) | – | – | 8 (≈ 13.7 µM) | 4 (≈ 6.87 µM) | 8 (≈ 13.7 µM) | – | – | – | – | – | – |
| O=C(COc1ccc(/C=C2\SC(=S)N([C@@H](Cc3ccc(O)cc3)C(=O)O)C2=O)cc1)c1ccccc1Br | 32 (≈ 53.5 µM) | 16 (≈ 26.7 µM) | > 64 | – | 32 (≈ 53.5 µM) | 16 (≈ 26.7 µM) | – | – | 32 (≈ 53.5 µM) | 16 (≈ 26.7 µM) | 16 (≈ 26.7 µM) | – | – | – | – | – | – |
| COc1cccc(C(=O)COc2ccc(/C=C3\SC(=S)N([C@@H](Cc4ccc(O)cc4)C(=O)O)C3=O)cc2)c1 | 32 (≈ 58.2 µM) | 8 (≈ 14.6 µM) | > 64 | – | 16 (≈ 29.1 µM) | 8 (≈ 14.6 µM) | – | – | 16 (≈ 29.1 µM) | 8 (≈ 14.6 µM) | 8 (≈ 14.6 µM) | – | – | – | – | – | – |
| O=C(COc1ccc(/C=C2\SC(=S)N([C@@H](Cc3ccccc3)C(=O)O)C2=O)cc1)c1ccc(F)cc1 | 4 (≈ 7.67 µM) | 1 (≈ 1.92 µM) | > 64 | 64 | 1 (≈ 1.92 µM) | 1 (≈ 1.92 µM) | 64 | 64 | 1 (≈ 1.92 µM) | 4 (≈ 7.67 µM) | 4 (≈ 7.67 µM) | 64 | 4 | 4 | – | – | – |
| O=C(COc1ccc(/C=C2\SC(=S)N([C@@H](Cc3ccc(O)cc3)C(=O)O)C2=O)cc1)c1ccccc1 | 32 (≈ 61.6 µM) | 32 (≈ 61.6 µM) | > 64 | – | 32 (≈ 61.6 µM) | 32 (≈ 61.6 µM) | – | – | 32 (≈ 61.6 µM) | 32 (≈ 61.6 µM) | 32 (≈ 61.6 µM) | – | – | – | – | – | – |
| O=C(COc1ccc(/C=C2\SC(=S)N([C@@H](Cc3c[nH]c4ccccc34)C(=O)O)C2=O)cc1)c1ccc(Br)cc1 | 8 (≈ 12.9 µM) | 8 (≈ 12.9 µM) | > 64 | – | 8 (≈ 12.9 µM) | 8 (≈ 12.9 µM) | – | – | 8 (≈ 12.9 µM) | 4 (≈ 6.44 µM) | 4 (≈ 6.44 µM) | – | – | – | – | – | – |
| O=C(COc1ccc(/C=C2\SC(=S)N([C@@H](Cc3c[nH]c4ccccc34)C(=O)O)C2=O)cc1)c1cccc(Br)c1 | 4 (≈ 6.44 µM) | 4 (≈ 6.44 µM) | > 64 | – | 4 (≈ 6.44 µM) | 4 (≈ 6.44 µM) | – | – | 4 (≈ 6.44 µM) | 2 (≈ 3.22 µM) | 4 (≈ 6.44 µM) | – | – | – | – | – | – |
| O=C(COc1ccc(/C=C2\SC(=S)N([C@@H](Cc3c[nH]c4ccccc34)C(=O)O)C2=O)cc1)c1ccccc1 | 8 (≈ 14.7 µM) | 8 (≈ 14.7 µM) | > 64 | – | 8 (≈ 14.7 µM) | 8 (≈ 14.7 µM) | – | – | 8 (≈ 14.7 µM) | 8 (≈ 14.7 µM) | 8 (≈ 14.7 µM) | – | – | – | – | – | – |
| O=C(COc1ccc(/C=C2\SC(=S)N([C@@H](Cc3c[nH]c4ccccc34)C(=O)O)C2=O)cc1)c1ccc(Cl)cc1 | 1 (≈ 1.73 µM) | 1 (≈ 1.73 µM) | > 64 | 64 | 1 (≈ 1.73 µM) | 1 (≈ 1.73 µM) | 64 | 64 | 1 (≈ 1.73 µM) | 1 (≈ 1.73 µM) | 1 (≈ 1.73 µM) | 64 | 4 | 4 | 2 | 2 | 2 |
| COc1ccccc1C(=O)COc1ccc(/C=C2\SC(=S)N([C@@H](Cc3ccccc3)C(=O)O)C2=O)cc1 | 4 (≈ 7.5 µM) | 4 (≈ 7.5 µM) | > 64 | – | 4 (≈ 7.5 µM) | 4 (≈ 7.5 µM) | – | – | 4 (≈ 7.5 µM) | 4 (≈ 7.5 µM) | 4 (≈ 7.5 µM) | – | – | – | – | – | – |
